Source: ChEMBL document CHEMBL3046782, “Fungicidial Activity of Benthiavalicarb-isopropyl against Phytophthora infestans and Its Controlling Activity against Late Blight Diseases” (J Pestic Sci, 2005)
In brackets after ≈: the same amount, converted by molar mass. Activity calls are given as the source filed them. No cut-off for these calls is given here.

Assays:
Phytophthora infestans [1] = experiment: Antifungal activity against Phytophthora infestans infected tomato assessed as translaminar activity of controlling late blight at 3 to 100 mg/l after 24 hr; format: functional, organism-based
Phytophthora infestans [2] = experiment: Antifungal activity against Phytophthora infestans TK-301 assessed as inhibition of mycelial growth after 5 to 7 days; format: functional, organism-based
Phytophthora infestans [3] = experiment: Antifungal activity against Phytophthora infestans in potato tuber slices assessed as inhibition of cystospore germination at 10 ug/ml after 6 hr relative to control; format: functional
Phytophthora infestans [4] = experiment: Antifungal activity against Phytophthora infestans C-3 assessed as inhibition of mycelial growth after 5 to 7 days; format: functional, organism-based; conditions: for IC50: read-out: I50
Phytophthora infestans [5] = experiment: Antifungal activity against Phytophthora infestans in potato tuber slices assessed as inhibition of zoosporangia release at 10 ug/ml after 3 hr relative to control; format: functional
Phytophthora porri = experiment: Antifungal activity against Phytophthora porri IFO 30416 assessed as inhibition of mycelial growth after 5 to 7 days; format: functional, organism-based; conditions: for IC50: read-out: I50
Phytophthora infestans [6] = experiment: microbe, parasite or virus in culture; format: functional; conditions: Tuber, in Solanum tuberosum, 48 h
Phytophthora infestans [7] = experiment: Antifungal activity against Phytophthora infestans in potato tuber slices assessed as inhibition of zoosporangia motility at 1 ug/ml after 3 hr relative to control; format: functional, organism-based
Phytophthora infestans [8] = experiment: Antifungal activity against Phytophthora infestans in potato tuber slices assessed as inhibition of cystospore germination at 1 ug/ml after 6 hr relative to control; format: functional
Phytophthora infestans [9] = experiment: Antifungal activity against Phytophthora infestans in potato tuber slices assessed as inhibition of zoosporangia release at 100 ug/ml after 3 hr relative to control; format: functional
Phytophthora infestans [10] = experiment: Antifungal activity against Phytophthora infestans r0-3 assessed as inhibition of mycelial growth after 5 to 7 days; format: functional, organism-based; conditions: for IC50: read-out: I50
Phytophthora nicotianae = experiment: Antifungal activity against Phytophthora nicotianae IFO 30595 assessed as inhibition of mycelial growth after 5 to 7 days; format: functional, organism-based; conditions: for IC50: read-out: I50
Phytophthora cactorum = experiment: Antifungal activity against Phytophthora cactorum IFO 30474 assessed as inhibition of mycelial growth after 5 to 7 days; format: functional, organism-based; conditions: for IC50: read-out: I50
Phytophthora infestans [11] = experiment: Antifungal activity against Phytophthora infestans in potato tuber slices assessed as inhibition of zoosporangia motility at 100 ug/ml after 3 hr relative to control; format: functional, organism-based
Phytophthora megasperma = experiment: Antifungal activity against Phytophthora megasperma assessed as inhibition of mycelial growth after 5 to 7 days; format: functional, organism-based; conditions: for IC50: read-out: I50
Phytophthora infestans [12] = experiment: Antifungal activity against Phytophthora infestans infected tomato assessed as control of late blight at 25 to 50 g/ha treated 4 to 5 times at 7 day interval; format: functional, organism-based
Phytophthora katsurae = experiment: Antifungal activity against Phytophthora katsurae assessed as inhibition of mycelial growth after 5 to 7 days; format: functional, organism-based; conditions: for IC50: read-out: I50
Phytophthora infestans [13] = experiment: Antifungal activity against Phytophthora infestans in potato tuber slices assessed as inhibition of zoosporangia release at 1 ug/ml after 3 hr relative to control; format: functional
Phytophthora infestans [14] = experiment: Antifungal activity against Phytophthora infestans in potato tuber slices assessed as inhibition of zoosporangia germination at 0.1 ug/ml after 6 hr relative to control; format: functional
Phytophthora infestans [15] = experiment: Antifungal activity against Phytophthora infestans r1234-2 assessed as inhibition of mycelial growth after 5 to 7 days; format: functional, organism-based; conditions: for IC50: read-out: I50
Phytophthora infestans [16] = experiment: Antifungal activity against Phytophthora infestans in potato tuber slices assessed as inhibition of zoosporangia germination at 1 ug/ml after 6 hr relative to control; format: functional
Phytophthora infestans [17] = experiment: Antifungal activity against Phytophthora infestans r1234 assessed as inhibition of mycelial growth after 5 to 7 days; format: functional, organism-based; conditions: for IC50: read-out: I50
Phytophthora infestans [18] = experiment: microbe, parasite or virus in culture; format: functional; conditions: Tuber, in Solanum tuberosum, 48 h; remark: listed apart in the source
Phytophthora palmivora = experiment: Antifungal activity against Phytophthora palmivora IFO 30285 assessed as inhibition of mycelial growth after 5 to 7 days; format: functional, organism-based; conditions: for IC50: read-out: I50
Phytophthora infestans [19] = experiment: Antifungal activity against Phytophthora infestans in potato tuber slices assessed as inhibition of cystospore germination at 0.1 ug/ml after 6 hr relative to control; format: functional
Phytophthora infestans [20] = experiment: Antifungal activity against Phytophthora infestans infected tomato assessed as control of late blight at 10 mg/l after 12 hr by greenhouse test; format: functional, organism-based
Phytophthora infestans [21] = experiment: Antifungal activity against Phytophthora infestans in potato tuber slices assessed as inhibition of zoosporangia germination at 10 ug/ml after 6 hr relative to control; format: functional
Phytophthora infestans [22] = experiment: Antifungal activity against Phytophthora infestans infected tomato assessed as systemic activity of controlling late blight at 100 mg/l after 24 hr; format: functional, organism-based
Phytophthora infestans [23] = experiment: Antifungal activity against Phytophthora infestans infected potato plant assessed as control of late blight at 50 to 75 g/ha treated 4 to 5 times at 7 day interval; format: functional, organism-based
Phytophthora infestans [24] = experiment: Antifungal activity against Phytophthora infestans infected tomato assessed as control of late blight at 300 mg/l after 24 hr by greenhouse test; format: functional, organism-based
Phytophthora infestans [25] = experiment: microbe, parasite or virus in culture; format: functional; conditions: Tuber, in Solanum tuberosum, 48 h; remark: listed apart in the source
Phytophthora capsici = experiment: Antifungal activity against Phytophthora capsici IFO 8386 assessed as inhibition of mycelial growth after 5 to 7 days; format: functional, organism-based; conditions: for IC50: read-out: I50
Phytophthora infestans [26] = experiment: Antifungal activity against Phytophthora infestans in potato tuber slices assessed as inhibition of zoosporangia motility at 10 ug/ml after 3 hr relative to control; format: functional, organism-based

With `CC(C)OC(=O)N[C@H](C(=O)N[C@H](C)c1nc2ccc(F)cc2s1)C(C)C` [BENTHIAVALICARB-ISOPROPYL] the Activity (Phytophthora infestans [1]) was “Active”, the MIC (Phytophthora infestans [2]) was 0.03 µg/mL (≈ 0.0786 µM) and the IC50 (Phytophthora infestans [2]; read-out: I50) was 0.03 µg/mL (≈ 0.0786 µM). The inhibition at 10 µg/mL (Phytophthora infestans [3]) was 100%, the MIC (Phytophthora infestans [4]) was 0.1 µg/mL (≈ 0.262 µM) and the IC50 (Phytophthora infestans [4]) was 0.03 µg/mL (≈ 0.0786 µM). It also gave an inhibition at 10 µg/mL (Phytophthora infestans [5]) of 0%, an MIC (Phytophthora porri) of 0.1 µg/mL (≈ 0.262 µM) and an IC50 (Phytophthora porri) of 0.02 µg/mL (≈ 0.0524 µM). For the same compound, the inhibition at 1 µg/mL (Phytophthora infestans [6]) was 96.8%, the inhibition (Phytophthora infestans [7]) was “inactive” and the inhibition at 1 µg/mL (Phytophthora infestans [8]) was 100%. For the same compound, the inhibition at 100 µg/mL (Phytophthora infestans [9]) was 45.5%, the MIC (Phytophthora infestans [10]) was 0.03 µg/mL (≈ 0.0786 µM) and the IC50 (Phytophthora infestans [10]) was 0.03 µg/mL (≈ 0.0786 µM). For the same compound, the MIC (Phytophthora nicotianae) was 0.1 µg/mL (≈ 0.262 µM), the IC50 (Phytophthora nicotianae) was 0.05 µg/mL (≈ 0.131 µM) and the MIC (Phytophthora cactorum) was 0.03 µg/mL (≈ 0.0786 µM). The IC50 (Phytophthora cactorum) was 0.03 µg/mL (≈ 0.0786 µM), the inhibition (Phytophthora infestans [11]) was “inactive” and the MIC (Phytophthora megasperma) was 0.1 µg/mL (≈ 0.262 µM). For the same compound, the IC50 (Phytophthora megasperma) was 0.02 µg/mL (≈ 0.0524 µM), the Activity (Phytophthora infestans [12]) was “Active” and the MIC (Phytophthora katsurae) was 0.03 µg/mL (≈ 0.0786 µM). For the same compound, the IC50 (Phytophthora katsurae) was 0.04 µg/mL (≈ 0.105 µM), the inhibition at 1 µg/mL (Phytophthora infestans [13]) was 0% and the inhibition at 0.1 µg/mL (Phytophthora infestans [14]) was 98.6%. The MIC (Phytophthora infestans [15]) was 0.1 µg/mL (≈ 0.262 µM), the IC50 (Phytophthora infestans [15]) was 0.03 µg/mL (≈ 0.0786 µM) and the inhibition at 1 µg/mL (Phytophthora infestans [16]) was 100%. The MIC (Phytophthora infestans [17]) was 0.1 µg/mL (≈ 0.262 µM), the IC50 (Phytophthora infestans [17]) was 0.02 µg/mL (≈ 0.0524 µM) and the inhibition at 0.1 µg/mL (Phytophthora infestans [18]) was 45.2%. The MIC (Phytophthora palmivora) was 0.1 µg/mL (≈ 0.262 µM), the IC50 (Phytophthora palmivora) was 0.02 µg/mL (≈ 0.0524 µM) and the inhibition at 0.1 µg/mL (Phytophthora infestans [19]) was 95.5%. The Activity (Phytophthora infestans [20]) was “Active”, the inhibition at 10 µg/mL (Phytophthora infestans [21]) was 100% and the Activity (Phytophthora infestans [22]) was “Active”. The Activity (Phytophthora infestans [23]) was “Active”, the Activity (Phytophthora infestans [24]) was “Active” and the inhibition at 10 µg/mL (Phytophthora infestans [25]) was 97.6%. For the same compound, the MIC (Phytophthora capsici) was 0.03 µg/mL (≈ 0.0786 µM), the IC50 (Phytophthora capsici) was 0.01 µg/mL (≈ 0.0262 µM) and the inhibition (Phytophthora infestans [26]) was “inactive”.
`COCC(=O)N(c1c(C)cccc1C)C(C)C(=O)OC` (configuration not stated) [METALAXYL] was tested, and the MIC (Phytophthora infestans [4]) was 3 µg/mL (≈ 10.7 µM), the IC50 (Phytophthora infestans [4]) was 0.15 µg/mL (≈ 0.537 µM) and the MIC (Phytophthora porri) was > 3 µg/mL. The IC50 (Phytophthora porri) was 0.08 µg/mL (≈ 0.286 µM), the MIC (Phytophthora infestans [10]) was > 10 µg/mL and the IC50 (Phytophthora infestans [10]) was 0.21 µg/mL (≈ 0.752 µM). For the same compound, the MIC (Phytophthora nicotianae) was > 3 µg/mL, the IC50 (Phytophthora nicotianae) was 0.08 µg/mL (≈ 0.286 µM) and the MIC (Phytophthora cactorum) was 0.3 µg/mL (≈ 1.07 µM). The IC50 (Phytophthora cactorum) was 0.03 µg/mL (≈ 0.107 µM), the MIC (Phytophthora megasperma) was > 100 µg/mL and the IC50 (Phytophthora megasperma) was 0.34 µg/mL (≈ 1.22 µM). The MIC (Phytophthora katsurae) was > 100 µg/mL, the IC50 (Phytophthora katsurae) was 0.46 µg/mL (≈ 1.65 µM) and the MIC (Phytophthora infestans [15]) was > 10 µg/mL. For the same compound, the IC50 (Phytophthora infestans [15]) was 0.05 µg/mL (≈ 0.179 µM), the MIC (Phytophthora infestans [17]) was 0.3 µg/mL (≈ 1.07 µM) and the IC50 (Phytophthora infestans [17]) was 0.09 µg/mL (≈ 0.322 µM). The MIC (Phytophthora palmivora) was > 3 µg/mL, the IC50 (Phytophthora palmivora) was 0.54 µg/mL (≈ 1.93 µM) and the MIC (Phytophthora capsici) was > 3 µg/mL. It also gave an IC50 (Phytophthora capsici) of 0.62 µg/mL (≈ 2.22 µM).
